In ChEMBL document CHEMBL3232707, “Total synthesis of the lipid mediator PD1n-3 DPA: configurational assignments and anti-inflammatory and pro-resolving actions” (J Nat Prod, 2014):
Calls of active or inactive are those of the source.

Columns and labels:
Mus musculus [1] = assay: Antiinflammatory activity in mouse assessed as reduction of zymosan-induced number of neutrophils recovered from peritoneal exudates at 10 ng, iv administered 5 mins before zymosan challenge measured after 4 hrs by light microscopy/flow cytometry; format: functional, organism-based
Macrophage [2] = assay: Pro-resolving activity in human macrophages assessed as increase of phagocytosis of bisbenzimide-labeled apoptotic neutrophils at 100 nM to 10 pM preincubated for 15 mins measured after 60 mins; format: functional, cell-based
Macrophage [3] = assay: Pro-resolving activity in human macrophages assessed as increase of phagocytosis of fluorescence-labeled yeast cell wall particles at 100 nM to 10 pM preincubated for 15 mins measured after 60 mins; format: functional, cell-based
Mus musculus [4] = assay: Antiinflammatory activity in mouse assessed as reduction of zymosan-induced neutrophil recruitment during peritonitis at 10 ng, iv administered 5 mins before zymosan challenge measured after 4 hrs by light microscopy/flow cytometry; format: functional, organism-based

Measured: Activity

CC/C=C\C[C@H](O)\C=C/C=C/C=C/[C@H](O)C/C=C\CCCCCC(=O)O
active: all assays above

CC/C=C\C[C@H](O)\C=C/C=C/C=C/[C@H](O)C/C=C\C/C=C\CCC(=O)O
active: all assays above
